How the values were obtained:
gastric cancer = settings: patients with gastric cancer; cited from earlier work
hepatocellular carcinoma = settings: patients with hepatocellular carcinoma; cited from earlier work
[1] = Tivantinib steady-state plasma pharmacokinetics; type: in vivo, human
[2] = test system: triple-negative breast cancer; settings: patients with triple-negative breast cancer; cited from earlier work
[3] = test system: substrates of CYP1A, CYP2C9, CYP2C19, CYP3A4 or P-glycoprotein; settings: cited from earlier work
[4] = phase I dose escalation study; cited from earlier work
germ cell tumors = settings: patients with germ cell tumors; cited from earlier work
cytochrome P450 enzymes = settings: ref Hycamtin® prescribing information; cited from earlier work

Compound	Responses, monotherapy (gastric cancer)	Responses, monotherapy (hepatocellular carcinoma)	AUC0–8 hr ([1]; Dose Level 1 (tivantinib 240 mg), n=1)	Clsys (oral clearance), range of observed values ([1]; Dose Levels −1 and A1 (tivantinib 120 mg), n=11) [L/h]	AUC(0-t) ([1]; human, plasma, oral, AUC0–12 hr, median, All Dose Levels, n=12) [ng·h/mL]	Response rate, monotherapy [2] [%]	Interaction with substrates of CYP1A, CYP2C9, CYP2C19, CYP3A4 or P-glycoprotein [3]	Maximum tolerated dose, single agent [4]	Responses, monotherapy (germ cell tumors)	Induction or inhibition of cytochrome P450 enzymes (cytochrome P450 enzymes)
O=C1NC(=O)[C@@H](c2cn3c4c(cccc24)CCC3)[C@@H]1c1c[nH]c2ccccc12 [tivantinib]	No responses were seen	No responses were seen	7,243 ng × hr/ml	2.4 to 44.5	10500	5	has not been shown to have a significant interaction	no maximum tolerated dose was identified	No responses were seen	
CC[C@@]1(O)C(=O)OCc2c1cc1n(c2=O)Cc2cc3c(CN(C)C)c(O)ccc3nc2-1 [topotecan]										has not been shown to induce or inhibit cytochrome P450 enzymes

Reference: article PMC6342617 (Cancer chemotherapy and pharmacology, 2018)
